From patent publication US12421253B2 (Mirati Therapeutics, Inc., priority 2020, dated 2025)
pIC50: −log10 of the molar value.

Tests used:
[1] = target: T1, KRas^WT (Homo sapiens, UniProt P01116); test: KRas binding assay (TR-FRET displacement of Cy5 labelled tracer)
T1 construct: […]; biotin (biotinylated); purchased Accelegan Inc
Protocol: (§1) The ability of a compound to bind to KRas was measured using a TR-FRET displacement assay. […] After a 60-minute incubation at room temperature, the reaction was measured using a BMG LABTECH CLARIO star Plus via TR-FRET. […] The POC values were fit to a 4-parameter IC50 equation and the IC50 value reported.

[2] = target: T2, KRas^G12A (Homo sapiens, UniProt P01116, G12A); test: as above
T2 construct: […]; biotin (biotinylated); purchased Accelegan Inc
Protocol: as §1

[3] = target: T3, KRas^G12D (Homo sapiens, UniProt P01116, G12D); test: as above
T3 construct: […]; biotin (biotinylated); purchased Accelegan Inc
Protocol: as §1

[4] = target: T4, KRas^G12R (Homo sapiens, UniProt P01116, G12R); test: as above
T4 construct: […]; biotin (biotinylated); purchased Accelegan Inc
Protocol: as §1

[5] = target: T5, KRas^G12S (Homo sapiens, UniProt P01116, G12S); test: as above
T5 construct: […]; biotin (biotinylated); purchased Accelegan Inc
Protocol: as §1

[6] = target: T6, KRas^G12V (Homo sapiens, UniProt P01116, G12V); test: as above
T6 construct: […]; biotin (biotinylated); purchased Accelegan Inc
Protocol: as §1

[7] = target: KRas^G12C (Homo sapiens, UniProt P01116, G12C); test: biochemical
Protocol: as §1

[8] = target: KRas^G13D (Homo sapiens, UniProt P01116, G13D); test: biochemical
Protocol: as §1

[9] = target: KRas^Q61H (Homo sapiens, UniProt P01116, Q61H); test: biochemical
Chain of KRas^Q61H (P01116 1-169 isoform P01116-2 Q61H): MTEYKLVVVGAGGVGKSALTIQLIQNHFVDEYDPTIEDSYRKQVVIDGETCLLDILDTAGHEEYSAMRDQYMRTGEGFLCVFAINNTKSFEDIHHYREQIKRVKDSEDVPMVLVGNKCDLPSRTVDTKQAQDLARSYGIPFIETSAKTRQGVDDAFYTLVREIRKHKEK
Protocol: as §1

T5 sequence (P01116 1-169 isoform P01116-2 G12S): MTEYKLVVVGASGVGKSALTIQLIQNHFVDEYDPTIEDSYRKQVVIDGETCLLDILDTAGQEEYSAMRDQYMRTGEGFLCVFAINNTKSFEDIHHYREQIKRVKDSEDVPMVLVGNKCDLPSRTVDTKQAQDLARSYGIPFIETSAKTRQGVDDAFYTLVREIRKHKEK
T4 sequence (P01116 1-169 isoform P01116-2 G12R): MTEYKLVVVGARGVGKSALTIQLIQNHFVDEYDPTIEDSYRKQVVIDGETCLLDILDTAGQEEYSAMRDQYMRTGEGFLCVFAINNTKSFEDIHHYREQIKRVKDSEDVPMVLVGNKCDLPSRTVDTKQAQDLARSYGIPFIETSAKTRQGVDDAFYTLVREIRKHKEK
Chain of KRas^G13D (P01116 1-169 isoform P01116-2 G13D): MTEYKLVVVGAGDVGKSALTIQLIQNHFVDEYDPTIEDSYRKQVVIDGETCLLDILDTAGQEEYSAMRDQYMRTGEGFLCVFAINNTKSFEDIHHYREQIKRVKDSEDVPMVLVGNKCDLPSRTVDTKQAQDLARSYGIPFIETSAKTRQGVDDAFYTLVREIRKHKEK
Chain of KRas^G12C (P01116 1-169 isoform P01116-2 G12C): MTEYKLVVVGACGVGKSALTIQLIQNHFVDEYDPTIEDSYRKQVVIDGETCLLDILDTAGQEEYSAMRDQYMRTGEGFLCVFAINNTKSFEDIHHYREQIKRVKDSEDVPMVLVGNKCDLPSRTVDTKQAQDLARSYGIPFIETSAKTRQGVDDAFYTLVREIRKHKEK
T6 sequence (P01116 1-169 isoform P01116-2 G12V): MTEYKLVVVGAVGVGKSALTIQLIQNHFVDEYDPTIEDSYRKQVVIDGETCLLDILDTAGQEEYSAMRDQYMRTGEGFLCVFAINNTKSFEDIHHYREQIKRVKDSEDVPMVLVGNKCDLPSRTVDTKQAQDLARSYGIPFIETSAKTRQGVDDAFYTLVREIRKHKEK
T3 sequence (P01116 1-169 isoform P01116-2 G12D): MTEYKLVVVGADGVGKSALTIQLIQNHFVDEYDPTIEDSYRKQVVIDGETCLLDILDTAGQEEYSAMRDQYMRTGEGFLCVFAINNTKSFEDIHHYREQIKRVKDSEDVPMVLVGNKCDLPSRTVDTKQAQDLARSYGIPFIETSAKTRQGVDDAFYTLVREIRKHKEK
T1 sequence (P01116 1-169 isoform P01116-2): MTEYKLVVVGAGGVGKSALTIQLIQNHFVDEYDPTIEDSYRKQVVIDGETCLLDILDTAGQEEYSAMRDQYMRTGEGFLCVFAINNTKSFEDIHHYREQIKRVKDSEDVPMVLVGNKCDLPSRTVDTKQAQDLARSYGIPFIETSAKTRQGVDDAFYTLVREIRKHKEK
T2 sequence (P01116 1-169 isoform P01116-2 G12A): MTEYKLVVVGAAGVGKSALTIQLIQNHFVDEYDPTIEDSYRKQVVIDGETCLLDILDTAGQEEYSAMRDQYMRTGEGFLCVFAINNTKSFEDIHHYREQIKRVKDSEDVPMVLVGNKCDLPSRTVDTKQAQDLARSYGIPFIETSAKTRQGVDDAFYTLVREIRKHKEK

Row | Structure (SMILES) | pIC50 [1] | pIC50 [2] | pIC50 [3] | pIC50 [4] | pIC50 [5] | pIC50 [6] | pIC50 [7] | pIC50 [8] | pIC50 [9]
1 | CCc1cccc2cccc(N3CCc4c(nc(OCC56CCCN5CCC6)nc4N4CCC(O)CC(C)C4)C3)c12 (stereo not drawn) [Example 92, 1-(7-(8-ethylnaphthalen-1-yl)-2-((tetrahydro-1H-pyrrolizin-7a(5H)-yl)methoxy)-5,6,7,8-tetrahydropyrido[3,4-d]pyrimidin-4-yl)-6-methylazepan-4-ol] | 6.63 | 6.52 | 6.27 | 6.55 | 6.47 | 6.53 | 6.46 | 6.61 | 6.49
2 | CCc1cccc2cccc(N3CCc4c(nc(OCC56CCCN5CCC6)nc4N4CCCC(CO)CC4)C3)c12 (stereo not drawn) [Example 107, (1-(7-(8-ethylnaphthalen-1-yl)-2-((tetrahydro-1H-pyrrolizin-7a(5H)-yl)methoxy)-5,6,7,8-tetrahydropyrido[3,4-d]pyrimidin-4-yl)azepan-4-yl)methanol] | 6.43 | 6.37 | 5.84 | 6.20 | 6.27 | 6.39 | 6.31 | 6.33 | 6.28
3 | CCc1cccc2cccc(N3CCc4c(nc(OCC56CCCN5CCC6)nc4N4CCCC(c5nnc6n5CCC6)C4)C3)c12 (stereo not drawn) [Example 106, 4-(3-(6,7-dihydro-5H-pyrrolo[2,1-c][1,2,4]triazol-3-yl)piperidin-1-yl)-7-(8-ethylnaphthalen-1-yl)-2-((tetrahydro-1H-pyrrolizin-7a(5H)-yl)methoxy)-5,6,7,8-tetrahydropyrido[3,4-d]pyrimidine] | 5.85 | 6.20 | 5.65 | 5.75 | 6.12 | 5.89 | 6.43 | 5.97 | 5.84
4 | CCc1cccc2cccc(N3CCc4c(nc(OCC56CCCN5CCC6)nc4N4CCCC(c5nc(=O)[nH][nH]5)C4)C3)c12 (stereo not drawn) [Example 104, 5-(1-(7-(8-ethylnaphthalen-1-yl)-2-((tetrahydro-1H-pyrrolizin-7a(5H)-yl)methoxy)-5,6,7,8-tetrahydropyrido[3,4-d]pyrimidin-4-yl)piperidin-3-yl)-1,2-dihydro-3H-1,2,4-triazol-3-one] | 5.80 | 6.12 | 5.38 | 6.44 | 5.95 | 6.07 | 6.05 | 5.75 | 5.70
5 | CCc1cccc2cccc(N3CCc4c(nc(OCC56CCCN5CCC6)nc4N4CCCC(c5n[nH]c(C6CC6)n5)C4)C3)c12 (stereo not drawn) [Example 108, 4-(3-(5-cyclopropyl-1H-1,2,4-triazol-3-yl)piperidin-1-yl)-7-(8-ethylnaphthalen-1-yl)-2-((tetrahydro-1H-pyrrolizin-7a(5H)-yl)methoxy)-5,6,7,8-tetrahydropyrido[3,4-d]pyrimidine] | 5.81 | 6.18 | 5.39 | 6.42 | 6.01 | 6.02 | 6.31 | 5.89 | 5.80
6 | CCc1cccc2cccc(N3CCc4c(nc(OCC56CCCN5CCC6)nc4NC4CCc5ncsc5C4)C3)c12 (stereo not drawn) [Example 168, N-(7-(8-ethylnaphthalen-1-yl)-2-((tetrahydro-1H-pyrrolizin-7a(5H)-yl)methoxy)-5,6,7,8-tetrahydropyrido[3,4-d]pyrimidin-4-yl)-4,5,6,7-tetrahydrobenzo[d]thiazol-6-amine] | 4.82 | 4.96 | 4.58 | 5.31 | 5.02 | 5.15 | 5.27 | 4.66 | 4.84
7 | CCc1cccc2cccc(N3CCc4c(nc(OCC56CCCN5CCC6)nc4N4CCCC(c5ncc(C)s5)C4)C3)c12 (stereo not drawn) [Example 135, 2-(1-(7-(8-ethylnaphthalen-1-yl)-2-((tetrahydro-1H-pyrrolizin-7a(5H)-yl)methoxy)-5,6,7,8-tetrahydropyrido[3,4-d]pyrimidin-4-yl)piperidin-3-yl)-5-methylthiazole] | 5.55 | 5.57 | 5.39 | 6.07 | 5.62 | 5.54 | 5.71 | 5.55 | 5.55
8 | CCc1cccc2cccc(N3CCc4c(nc(OCC56CCCN5CCC6)nc4N4CCCC(c5nc(N)n(C)n5)C4)C3)c12 (stereo not drawn) [Example 84, 3-(1-(7-(8-ethylnaphthalen-1-yl)-2-((tetrahydro-1H-pyrrolizin-7a(5H)-yl)methoxy)-5,6,7,8-tetrahydropyrido[3,4-d]pyrimidin-4-yl)piperidin-3-yl)-1-methyl-1H-1,2,4-triazol-5-amine] | 6.08 | 6.67 | 5.68 | 6.98 | 6.45 | 6.54 | 6.79 | 6.16 | 6.13
9 | CCc1cccc2cccc(N3CCc4c(nc(OCC56CCCN5CCC6)nc4N4CCCC(c5n[nH]cc5NC(C)=O)C4)C3)c12 (stereo not drawn) [Example 143, N-(3-(1-(7-(8-ethylnaphthalen-1-yl)-2-((tetrahydro-1H-pyrrolizin-7a(5H)-yl)methoxy)-5,6,7,8-tetrahydropyrido[3,4-d]pyrimidin-4-yl)piperidin-3-yl)-1H-pyrazol-4-yl)acetamide] | 5.69 | 5.65 | 5.23 | 5.70 | 5.61 | 5.38 | 5.72 | 5.88 | 5.90
10 | CCc1cccc2cccc(N3CCc4c(nc(OCC56CCCN5CCC6)nc4NCc4nnc(CSC)[nH]4)C3)c12 [Example 161, 7-(8-ethylnaphthalen-1-yl)-N-((5-((methylthio)methyl)-4H-1,2,4-triazol-3-yl)methyl)-2-((tetrahydro-1H-pyrrolizin-7a(5H)-yl)methoxy)-5,6,7,8-tetrahydropyrido[3,4-d]pyrimidin-4-amine] | 4.56 | 4.66 | 5.11 | 4.84 | 4.82 | 5.56 | 5.17 | 4.60 | 4.67
11 | CCc1cccc2cccc(N3CCc4c(nc(OCC56CCCN5CCC6)nc4N4CCCC(n5nccn5)C4)C3)c12 (stereo not drawn) [Example 132, 4-(3-(2H-1,2,3-triazol-2-yl)piperidin-1-yl)-7-(8-ethylnaphthalen-1-yl)-2-((tetrahydro-1H-pyrrolizin-7a(5H)-yl)methoxy)-5,6,7,8-tetrahydropyrido[3,4-d]pyrimidine] | 5.84 | 5.93 | 5.41 | 6.11 | 5.78 | 5.78 | 5.88 | 5.84 | 5.77
12 | CCc1cccc2cccc(N3CCc4c(nc(OCC56CCCN5CCC6)nc4NCCNS(N)(=O)=O)C3)c12 [Example 160, N-(2-((7-(8-ethylnaphthalen-1-yl)-2-((tetrahydro-1H-pyrrolizin-7a(5H)-yl)methoxy)-5,6,7,8-tetrahydropyrido[3,4-d]pyrimidin-4-yl)amino)ethyl)sulfamide] | 5.06 | 5.03 | 5.35 | 5.12 | 5.17 | 5.59 | 5.37 | 5.00 | 4.96
